Drawing on US9226916B2, “Pyrrolidine derivatives” (HOFFMANN-LA ROCHE INC., priority 2009, dated 2016), this text covers Ki for 17 compounds.

What is called Ki is the dissociation constant of the complex between target and ligand, obtained from inhibition or displacement.

The first assay concerns the target T1, recombinant human NK3 receptor (Homo sapiens, UniProt P29371).
T1 construct: expressed in transfected cells; host or cells: HEK293 cells, transient expression; membranes
T1 sequence (P29371 1-465): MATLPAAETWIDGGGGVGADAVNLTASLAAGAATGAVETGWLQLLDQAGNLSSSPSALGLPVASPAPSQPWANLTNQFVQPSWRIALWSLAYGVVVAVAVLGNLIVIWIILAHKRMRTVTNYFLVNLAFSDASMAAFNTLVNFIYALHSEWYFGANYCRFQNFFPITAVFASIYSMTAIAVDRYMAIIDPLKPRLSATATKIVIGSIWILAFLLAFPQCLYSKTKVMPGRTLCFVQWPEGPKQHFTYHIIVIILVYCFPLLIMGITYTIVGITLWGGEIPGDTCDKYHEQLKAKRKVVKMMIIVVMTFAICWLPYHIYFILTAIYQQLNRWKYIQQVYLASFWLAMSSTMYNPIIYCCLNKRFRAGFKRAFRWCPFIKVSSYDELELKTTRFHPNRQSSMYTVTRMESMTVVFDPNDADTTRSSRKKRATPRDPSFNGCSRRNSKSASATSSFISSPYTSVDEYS
Kind of assay: [3H]SR142801 competition binding assay.
Settings: not given
For the compound `CN(C(=O)Oc1ccc(F)cc1)[C@@H]1CN(C(=O)[C@H]2CC[C@@H](O)CC2)C[C@H]1c1ccc(Cl)c(Cl)c1` [Example 60, [(3S,4R)-4-(3,4-Dichloro-phenyl)-1-(cis-4-hydroxy-cyclohexanecarbonyl)-pyrrolidin-3-yl]-methyl-carbamic acid 4-fluoro-phenyl ester], the inhibition constant (Ki) stood at 1.7 nM.
On the same count and under the same terms, for `Cc1nnc(N2CCC(C(=O)N3C[C@@H](N(C)C(=O)Oc4ccc(F)cc4)[C@H](c4ccc(Cl)cc4)C3)CC2)o1` [Example 134, {(3S,4R)-4-(4-Chloro-phenyl)-1-[1-(5-methyl-[1,3,4]oxadiazol-2-yl)-piperidine-4-carbonyl]-pyrrolidin-3-yl}-methyl-carbamic acid 4-fluoro-phenyl ester] the value was 3.6 nM; for `CCC(C)(C)OC(=O)N(C)[C@@H]1CN(C(=O)C2CCN(c3ccc(C#N)cn3)CC2)C[C@H]1c1ccc(Cl)cc1` [Example 234, [(3S,4R)-4-(4-Chloro-phenyl)-1-(5′-cyano-3,4,5,6-tetrahydro-2H-[1,2′]bipyridinyl-4-carbonyl)-pyrrolidin-3-yl]-methyl-carbamic acid 1,1-dimethyl-propyl ester], 79.4 nM.
On the same count and under the same terms, as for `COC1CCC(OC(=O)N(C)[C@@H]2CN(C(=O)C3CCN(c4ccc(C#N)cn4)CC3)C[C@H]2c2ccc(Cl)cc2)CC1` (stereo partly drawn) [Example 238, [(3S,4R)-4-(4-Chloro-phenyl)-1-(5′-cyano-3,4,5,6-tetrahydro-2H-[1,2′]bipyridinyl-4-carbonyl)-pyrrolidin-3-yl]-methyl-carbamic acid 4-methoxy-cyclohexyl ester], the figure is 48 nM.
Still for that read-out and setting: for `CC(=O)c1ccc(N2CCC(C(=O)N3C[C@@H](N(C)C(=O)Oc4ccc(F)cc4)[C@H](c4ccc(F)c(Cl)c4)C3)CC2)nc1` [Example 318, [(3S,4R)-1-(5′-Acetyl-3,4,5,6-tetrahydro-2H-[1,2′]bipyridinyl-4-carbonyl)-4-(3-chloro-4-fluoro-phenyl)-pyrrolidin-3-yl]-methyl-carbamic acid 4-fluoro-phenyl ester] the value was 0.7 nM; for `CN(C(=O)Oc1ccc(F)cc1)[C@@H]1CN(C(=O)C2CCN(C(=O)C3(C#N)CC3)CC2)C[C@H]1c1ccc(F)cc1` [Example 288, [(3S,4R)-1-[1-(1-Cyano-cyclopropanecarbonyl)-piperidine-4-carbonyl]-4-(4-fluoro-phenyl)-pyrrolidin-3-yl]-methyl-carbamic acid 4-fluoro-phenyl ester], 26.6 nM.
Turning to `CC1(C(=O)N2CCC(C(=O)N3C[C@H](NC(=O)Oc4ccc(F)cc4)[C@@H](c4ccc(Cl)c(Cl)c4)C3)CC2)CC1` (racemic) [Example 43, rac-{(3R,4S)-4-(3,4-Dichloro-phenyl)-1-[1-(1-methyl-cyclopropanecarbonyl)-piperidine-4-carbonyl]-pyrrolidin-3-yl}-carbamic acid 4-fluoro-phenyl ester], the Ki stood at 3.4 nM.
Same read-out and setting: for `CN(C(=O)Oc1ccc(C(F)(F)F)cc1)[C@@H]1CN(C(=O)C2CCN(c3ccc(C#N)cn3)CC2)C[C@H]1c1ccc(Cl)cc1` [Example 207, [(3S,4R)-4-(4-Chloro-phenyl)-1-(5′-cyano-3,4,5,6-tetrahydro-2H-[1,2′]bipyridinyl-4-carbonyl)-pyrrolidin-3-yl]-methyl-carbamic acid 4-trifluoromethyl-phenyl ester] the value was 0.6 nM.
The same measure, in the same setting: for `Cc1ccc(N2CCC(C(=O)N3C[C@@H](N(C)C(=O)Oc4ccc(F)cc4)[C@H](c4ccc(Cl)cc4)C3)CC2)nn1` [Example 118, {(3S,4R)-4-(4-Chloro-phenyl)-1-[1-(6-methyl-pyridazin-3-yl)-piperidine-4-carbonyl]-pyrrolidin-3-yl}-methyl-carbamic acid 4-fluoro-phenyl ester] the value was 0.3 nM; for `Cc1ccc(OC(=O)N(C)[C@H]2CN(C(=O)C3CCN(C(=O)C4(C)CC4)CC3)C[C@@H]2c2ccc(Cl)c(Cl)c2)cc1` (racemic) [Example 14, rac-{(3R,4S)-4-(3,4-Dichloro-phenyl)-1-[1-(1-methyl-cyclopropanecarbonyl)-piperidine-4-carbonyl]-pyrrolidin-3-yl}-methyl-carbamic acid p-tolyl ester], 1.2 nM.
Same read-out and setting: for `COc1ccc(OC(=O)N(C)[C@H]2CN(C(=O)C3CCN(C(=O)C4(C)CC4)CC3)C[C@@H]2c2ccc(Cl)c(Cl)c2)cc1` (racemic) [Example 15, rac-{(3R,4S)-4-(3,4-Dichloro-phenyl)-1-[1-(1-methyl-cyclopropanecarbonyl)-piperidine-4-carbonyl]-pyrrolidin-3-yl}-methyl-carbamic acid p-methoxyphenyl ester] the value was 2.5 nM; for `CN(C(=O)Oc1ccc(F)cc1)[C@@H]1CN(C(=O)C2CCN(C(=O)C3(C)CC3)CC2)C[C@@H]1c1ccc(Cl)c(Cl)c1` (stereo in doubt) [Example 62, {(3S,4S)-4-(3,4-Dichloro-phenyl)-1-[1-(1-methyl-cyclopropanecarbonyl)-piperidine-4-carbonyl]-pyrrolidin-3-yl}-methyl-carbamic acid 4-fluoro-phenyl ester], 31.4 nM.
As to `CN(C(=O)OCCC(F)(F)F)[C@H]1CN(C(=O)C2CCN(C(=O)C3(C)CC3)CC2)C[C@@H]1c1ccc(Cl)c(Cl)c1` (stereo in doubt) [Example 86, {(3R,4S)-4-(3,4-dichloro-phenyl)-1-[1-(1-methyl-cyclopropanecarbonyl)-piperidine-4-carbonyl]-pyrrolidin-3-yl}-methyl-carbamic acid 3,3,3-trifluoro-propyl ester], the inhibition constant (Ki) came out at 60.4 nM.
Consider `CN(C(=O)Oc1ccc(F)c(F)c1)[C@@H]1CN(C(=O)C2CCN(c3ccc(C#N)cn3)CC2)C[C@H]1c1ccc(Cl)cc1` [Example 209, [(3S,4R)-4-(4-Chloro-phenyl)-1-(5′-cyano-3,4,5,6-tetrahydro-2H-[1,2′]bipyridinyl-4-carbonyl)-pyrrolidin-3-yl]-methyl-carbamic acid 3,4-difluoro-phenyl ester], for which the inhibitory constant (Ki) turned out to be 0.8 nM.
Still for that read-out and setting: for `CN(C(=O)O[C@H]1CC[C@H](C(F)(F)F)CC1)[C@@H]1CN(C(=O)C2CCOCC2)C[C@H]1c1ccc(Cl)c(Cl)c1` [Example 161, [(3S,4R)-4-(3,4-Dichloro-phenyl)-1-(tetrahydro-pyran-4-carbonyl)-pyrrolidin-3-yl]-methyl-carbamic acid 4-trifluoromethyl-cyclohexyl ester] the value was 7.4 nM.

The assay is the same for the next values; noted with them: hNK-3 receptor affinity; membranes from HEK293 cells transiently expressing recombinant human NK3 receptor; [3H]SR142801; Cheng-Prussoff; read-out: Data Ki.
Take `CN(C(=O)OCCCC(F)(F)F)[C@H]1CN(C(=O)C2CCN(C(=O)C3(C)CC3)CC2)C[C@@H]1c1ccc(Cl)c(Cl)c1` [Example 81, {(3R,4S)-4-(3,4-Dichloro-phenyl)-1-[1-(1-methyl-cyclopropanecarbonyl)-piperidine-4-carbonyl]-pyrrolidin-3-yl}-methyl-carbamic acid 4,4,4-trifluoro-butyl ester]: the Ki amounted to 67 nM.
Same read-out and setting: for `CN(C(=O)O[C@]1(C)CC[C@@H](C)CC1)[C@@H]1CN(C(=O)C2CCN(c3ccc(C#N)cn3)CC2)C[C@H]1c1ccc(Cl)cc1` [Example 242, [(3S,4R)-4-(4-Chloro-phenyl)-1-(5′-cyano-3,4,5,6-tetrahydro-2H-[1,2′]bipyridinyl-4-carbonyl)-pyrrolidin-3-yl]-methyl-carbamic acid 1,4-dimethyl-cyclohexyl ester] the value was 2.7 nM.
